Data set [1] deals with liver cancer cell line (HepG-2). Kind of data set: MTT anticancer activity, HepG-2. The data set is classed as cell-based, human. To be noted: Homo sapiens, HepG2; HepG-2, 72 h, MTT; mean ± SEM. How it is done:
(§1) Anticancer effect of the above-mentioned compounds was evaluated using four human cancer cell lines. Colon cancer cells (Caco-2), myeloid leukaemia cell line (NFS-60), liver cancer cell line (HepG-2) and prostate cancer cell line (PC-3) using MTT method was used for assaying cell viability[26] (Supplementary Page S55).
(§2) All final compounds were evaluated against four human cancer cell lines namely; liver cancer (HepG2) (ATCC® HB-8065™), colon cancer (Caco-2) (ATCC® HTB-37™), leukaemia cancer (NFS-60) (ATCC® CRL-1838™), and prostate cancer (PC-3) (ATCC® CRL-1435™) using doxorubicin (Dox) as the reference drug being widely used in tumour management utilising microculture MTT assay, declared by Mosmann[26] (Table 1 in Supplementary Material, Figures 5–8). […]
(§3) MTT method was used for assaying cell viability 25. Twenty microliters of 5 mg/ml MTT (Sigma, USA) was added to each well and the plate was incubated at 37 °C for 3 h. Then MTT solution was removed, 100 µl DMSO was used and the absorbance of each well was measured with a microplate reader ( BMG LabTech, Germany) at 570 nm. The effective concentration (IC 50) and safe dose (EC100) values of the tested compounds that cause 50% and 100% cell viability were estimated by the Graphpad Instat software.
(§4) Determination of the anticancer activity
(§5) Anticancer effect of the above-mentioned compounds was evaluated using four human cancer cell lines. Colon cancer cells (Caco-2) were maintained in DMEM (Lonza, USA) containing 10% FBS while myeloid leukemia cell line (NFS-60), liver cancer cell line (HepG-2) and prostate cancer cell line (PC-3) were cultured in RPMI-1640 (Lonza, USA) supplemented with 10% FBS. All cancer cells (5x10^3 cells/well) were seeded in sterile 96-well plates. After 24h, serial concentrations of the tested compounds and Dox were incubated with four cancer cell lines for 72 h at 37 °C in 5% CO2 incubator. MTT method was done as described above. The Graphpad Instat software was used for calculating the half maximal inhibitory concentration (IC50) values. Furthermore, phase contrast inverted microscope with a digital camera (Olympus, Japan) was used for investigating […]
(§6) safest anticancer compounds. […]

Data set [2] has as its system normal human lung fibroblast Wi-38 cell line. Kind of data set: MTT cytotoxicity on normal cells. The data set is classed as cell-based. To be noted: Wi-38, 72 h, MTT, mean ± SEM; for EC50: Homo sapiens, 50% cell viability; for Wi-38 EC100: safe dose, 100% cell viability. As for the experimental part:
Cytotoxicity of the tested compounds was evaluated using normal human lung fibroblast Wi-38 cell line compared to currently used anticancer drug (doxorubicin) using MTT method was used for assaying cell viability[26] (Supplementary Page S55).
Cytotoxicity test is one of the biological evaluations and screening tests that use human normal and cancer cells in-vitro to observe the effect of the studied compounds on their growth using MTT-based cytotoxicity. Microculture MTT method[26] was used to determine cytotoxic activity of the newly synthesised compounds against normal human lung fibroblast (Wi-38) using doxorubicin (Dox) as standard anticancer drug. The highest IC50 and EC100 values illustrate that the compounds were safe on the proliferation of normal human cells. […]. page 47:
(§7) Cytotoxicity of the tested compounds was evaluated using normal human lung fibroblast Wi-38 cell line compared to currently used anticancer drug (doxorubicin).
as §3, with “Firstly, Wi-38 cell line was subcultured in DMEM medium-contained 10% fetal bovine serum (FBS), then, seeded as 5x10^3 cells per well in 96-well cell culture plate and incubated at 37 °C in 5% CO 2 incubator. Serial concentrations of these compounds and doxorubicin (Dox) were incubat ed with Wi-38 cells for 72 h after 24 h for cell attachment. MTT method” for “MTT method”, “Instat software. […]” for “Instat software.”

The test system of data set [3] is Colon cancer cells (Caco-2). Kind of data set: MTT anticancer activity, Caco-2. To be noted: for IC50: Caco-2, 72 h, MTT, mean ± SEM; for Caco-2 SI: selectivity index, Wi-38 versus Caco-2. In kind it is cell-based, human. As for the experimental part:
as §1
All final compounds were evaluated against four human cancer cell lines namely; liver cancer (HepG2) (ATCC® HB-8065™), colon cancer (Caco-2) (ATCC® HTB-37™), leukaemia cancer (NFS-60) (ATCC® CRL-1838™), and prostate cancer (PC-3) (ATCC® CRL-1435™) using doxorubicin (Dox) as the reference drug being widely used in tumour management utilising microculture MTT assay, declared by Mosmann[26] (Table 1 in Supplementary Material, Figures 5–8).
as §7
as §3, with “Firstly, Wi-38 cell line was subcultured in DMEM medium-contained 10% fetal bovine serum (FBS), then, seeded as 5x10^3 cells per well in 96-well cell culture plate and incubated at 37 °C in 5% CO 2 incubator. Serial concentrations of these compounds and doxorubicin (Dox) were incubat ed with Wi-38 cells for 72 h after 24 h for cell attachment. MTT method” for “MTT method”
as §4, §5, §6

Data set [4] has as its system prostate cancer cell line (PC-3). Kind of data set: MTT anticancer activity, PC-3. The data set is classed as cell-based, human. To be noted: PC-3, 72 h, mean ± SEM. How it is done:
as §1, §2, §3, §4, §5, §6

For data set [5], the system named is myeloid leukaemia cell line (NFS-60). Kind of data set: MTT anticancer activity, NFS-60. In kind it is cell-based. The note with it: NFS-60, 72 h, MTT; mean ± SEM. How it is done: as §1, §2, §3, §4, §5, §6

The term IC50 denotes the midpoint of a concentration-inhibition curve. High values mean weaker potency in that assay, low ones greater potency in that assay. What is called EC50 is the midpoint of the concentration-response curve. A higher EC50 goes with a less potent agent. The melting point is the temperature of the solid-liquid transition.

On to `N#Cc1c(-c2cc3cc(Cl)ccc3nc2N2CCOCC2)cc(-c2cccc(O)c2)nc1OCC(=O)O` [9b, 2-((4-(6-Chloro-2-morpholin-4-yl-quinolin-3-yl)-3-cyano-6-(3-hydroxyphenyl)pyridin-2-yl)oxy)acetic acid], for which the melting point is 279 to 280 °C. The IC50 in data set [1] turned out to be 45.4 nM. Moreover, in data set [2], the EC50 is 171 ± 1 nM and the “Wi-38 EC100” value is 0.134 ± 0.01 µM. For the same compound, inhibition in data set [3] (Homo sapiens) was half-maximal at 55.2 ± 2 nM (IC50). In data set [3], the “Caco-2 SI” value was 3.098. In data set [4] (Homo sapiens, 72 h), this compound gave a 50% inhibitory concentration (IC50) of 97.3 ± 8 nM. Moreover, inhibition in data set [5] was half-maximal at 380 ± 10 nM (IC50).

`CC(=O)Oc1cccc(-c2cc(-c3cc4ccccc4nc3N3CCOCC3)c(C#N)c(=O)[nH]2)c1` [7a, 3-(5-Cyano-4-(2-morpholin-4-yl-quinolin-3-yl)-6-oxo-1,6-dihydropyridin-2-yl)phenyl acetate] came in with a melting point above 300 °C. In data set [1], it took 49.5 ± 0.1 nM to reach half-maximal inhibition (IC50). In addition, in data set [2], the EC50 was 174 ± 5 nM and the “Wi-38 EC100” value turned out to be 0.102 ± 0.01 µM. Further, the IC50 in data set [3] (Homo sapiens) was 79.9 ± 3 nM. Also, in data set [3], the “Caco-2 SI” value is recorded as 2.178. In data set [4] (Homo sapiens, 72 h), this compound registered an IC50 of 140 ± 20 nM. Moreover, half-maximal inhibition in data set [5] (IC50) was put at 145 ± 2 nM.

The compound `COc1ccc(NC(=O)COc2nc(-c3cccc(O)c3)cc(-c3cc4cc(Cl)ccc4nc3N3CCOCC3)c2C#N)cc1` [11f, 2-((4-(6-Chloro-2-morpholin-4-yl-quinolin-3-yl)-3-cyano-6-(3-hydroxyphenyl)pyridin-2-yl)oxy)-N-(4-methoxyphenyl)acetamide] came in with a melting point of 228 to 230 °C. The compound further gave a 50% inhibitory concentration (IC50) in data set [1] of 36.3 nM. In data set [2], the EC50 worked out at 181 ± 13 nM and the “Wi-38 EC100” value turned out to be 0.0347 ± 0.003 µM. For the same compound, the “Caco-2 SI” value in data set [3] is listed as 5.262.

`N#Cc1c(-c2cc3ccccc3nc2N2CCOCC2)cc(-c2cccc(O)c2)nc1S` [6a, 6-(3-Hydroxyphenyl)-4-(2-morpholin-4-yl-quinolin-3-yl)-2-mercaptopyridine-3-carbonitrile] returned a melting point of 240 to 242 °C. The compound also came in with an IC50 in data set [1] of 74 ± 2 nM. In data set [2], a half-maximal response (EC50) required 181 ± 5 nM and the “Wi-38 EC100” value came out at 0.0785 ± 0.003 µM. This compound also came in with an IC50 in data set [3] (Homo sapiens) of 104 ± 4 nM. In addition, the “Caco-2 SI” value in data set [3] was found to be 1.740. The IC50 in data set [4] (Homo sapiens, 72 h) stood at 127 ± 2 nM. This compound came in with an IC50 in data set [5] of 135 ± 2 nM.

`COc1ccc2nc(N3CCOCC3)c(-c3cc(-c4cccc(OC(C)=O)c4)[nH]c(=O)c3C#N)cc2c1` [7c, 3-(5-Cyano-4-(6-methoxy-2-morpholin-4-yl-quinolin-3-yl)-6-oxo-1,6-dihydropyridin-2-yl)phenyl acetate] came in with a melting point above 300 °C. The same compound yielded an IC50 in data set [1] of 142.1 ± 1 nM. For the same compound, in data set [2], the response was half-maximal at 137 ± 0.1 nM (EC50) and the “Wi-38 EC100” value came to 0.094 ± 0.005 µM. Also, the IC50 in data set [3] (Homo sapiens) was found to be 127 ± 14 nM. In data set [3], the “Caco-2 SI” value is on record as 1.079. This compound also came in with an IC50 in data set [4] (Homo sapiens, 72 h) of 101 ± 1 nM. In data set [5], this compound came in with an IC50 of 153 ± 34 nM.

`COc1ccc(NC(=O)COc2nc(-c3cccc(O)c3)cc(-c3cc4ccccc4nc3N3CCOCC3)c2C#N)cc1` [11c] returned a melting point of 268 to 270 °C. For the same compound, the IC50 in data set [1] came to 281 ± 7 nM. Further, in data set [2], the response was half-maximal at 101 ± 1 nM (EC50) and the “Wi-38 EC100” value worked out at 0.0483 ± 0.004 µM. This compound also gave an IC50 in data set [3] (Homo sapiens) of 100 ± 14 nM. The “Caco-2 SI” value in data set [3] was found to be 1.010. The midpoint of inhibition in data set [4] (Homo sapiens, 72 h), the IC50, lay at 159 ± 7 nM. In addition, in data set [5], half-maximal inhibition (IC50) was put at 110 ± 2 nM.

With `COc1ccc2nc(N3CCOCC3)c(-c3cc(-c4cccc(O)c4)nc(OCC(=O)Nc4ccccc4)c3C#N)cc2c1` [11g, 2-((3-Cyano-6-(3-hydroxyphenyl)-4-(6-methoxy-2-morpholin-4-yl-quinolin-3-yl)pyridin-2-yl)oxy)-N-phenylacetamide], the melting point is 269 to 270 °C. Also, in data set [1], 62.8 ± 1 nM corresponded to half-maximal inhibition (IC50). In addition, in data set [2], a half-maximal response (EC50) required 186 ± 10 nM and the “Wi-38 EC100” value stood at 0.0450 ± 0.005 µM. In data set [3] (Homo sapiens), the IC50 came out at 62.6 ± 1 nM. The “Caco-2 SI” value in data set [3] amounted to 2.971. In data set [4] (Homo sapiens, 72 h), this compound showed an IC50 of 83.9 ± 3 nM. Further, the IC50 in data set [5] came out at 103 ± 9 nM.

For `N#Cc1c(-c2cc3cc(Cl)ccc3nc2N2CCOCC2)cc(-c2cccc(O)c2)nc1OCC(=O)Nc1ccc(Cl)cc1` [11e, 2-((4-(6-Chloro-2-morpholin-4-yl-quinolin-3-yl)-3-cyano-6-(3-hydroxyphenyl)pyridin-2-yl)oxy)-N-(4-chlorophenyl)acetamide], the melting point is above 300 °C. Further, 41.6 nM corresponded to half-maximal inhibition in data set [1] (IC50). In data set [2], a half-maximal effect (EC50) was put at 85 ± 3 nM and the “Wi-38 EC100” value came out at 0.0178 ± 0.0001 µM. For the same compound, the “Caco-2 SI” value in data set [3] was 2.733.

Consider `N#Cc1c(-c2cc3ccccc3nc2N2CCOCC2)cc(-c2cccc(O)c2)[nH]c1=O` [5a, 6-(3-Hydroxyphenyl)-4-(morpholin-4-yl-quinolin-3-yl)-2-oxo-1,2-dihydropyridine-3-carbonitrile], for which the melting point is above 300 °C. For the same compound, in data set [1], the IC50 turned out to be 34.4 ± 6 nM. In data set [2], a half-maximal response (EC50) required 60.3 ± 40 nM and the “Wi-38 EC100” value was 0.0192 ± 0.003 µM. Inhibition in data set [3] (Homo sapiens) was half-maximal at 38.8 ± 8 nM (IC50). Besides, in data set [3], the “Caco-2 SI” value was found to be 1.554. The IC50 in data set [5] amounted to 31.62 ± 0.1 nM.

Compound `N#Cc1c(-c2cc3cc(Cl)ccc3nc2N2CCOCC2)cc(-c2cccc(O)c2)nc1OCC(=O)Nc1ccccc1` [11d, 2-((4-(6-Chloro-2-morpholin-4-yl-quinolin-3-yl)-3-cyano-6-(3-hydroxyphenyl)pyridin-2-yl)oxy)-N-phenylacetamide] gave a melting point of 277 to 280 °C. The IC50 in data set [1] was determined as 45.8 nM. Moreover, in data set [2], a half-maximal response (EC50) required 107 ± 1 nM and the “Wi-38 EC100” value came out at 0.0455 ± 0.002 µM. For the same compound, in data set [3], inhibition was half-maximal at 52.1 ± 2 nM (IC50) and the “Caco-2 SI” value was found to be 2.054. This compound displayed an IC50 in data set [3] (Homo sapiens) below 100 nM. The same compound registered a half-maximal inhibitory concentration (IC50) in data set [4] (Homo sapiens, 72 h) below 100 nM. Further, in data set [4], inhibition was half-maximal at 59.4 ± 1 nM (IC50).

(Values after PMC9848351, “Discovery of new pyridine-quinoline hybrids as competitive and non-competitive PIM-1 kinase inhibitors with apoptosis induction and caspase 3/7 activation capabilities” (Journal of Enzyme Inhibition and Medicinal Chemistry, 2023).)
